Marks after values point to notes of the source that are not given here. Starred links: 1 amine or outer side, 2 acyl side, 3 side chain; linkers in the order of their positions; H or OH if unused. Non-standard residues stand in square brackets, D forms with d. Residues, ends and D or L forms follow the SMILES beside them. γGlu = O=C(O)[C@H](CCC(=O)[*:2])N[*:1]; Tle = CC(C)(C)[C@H](N)C(=O)O

Test [1] relates to rat large intestine loop. Nature of the test: Fluid absorption in rat large intestine loop method (PGE2-stimulated). Format: in vivo, rats. Particulars: injected into loop 30 minutes after PGE2 i.p.; measured after 1 hour. As for the experimental part:
The cecum and large intestine were extirpated from the abdomen of each of male SD (IGS) rats under pentobarbital anesthesia, and the site 5 cm away from the area just under the cecum was ligated to form a large intestine loop Immediately after the loop had been formed, PGE2 (4 μg/ml/kg, SIGMA) was intraperitoneally administered, and after 30 minutes, a medicament, which had been dissolved in 2 ml of Tyrode's solution (NaCl: 136.9 mM, KCl: 2.7 mM, CaCl2.2H2O: 1.8 mM, MgCl2.6H2O: 1.04 mM, NaH2PO4.2H2O: 0.04 mM, NaH2PO4.2H2O: 0.04 mM, glucose: 5.55 mM, NaHCO3: 11.9 mM), was injected into the prepared loop (the medicament solution was adjusted so that the pH would be 6.5 to 7.5). As a control, Tyrode's solution free of any medicament (vehicle) was administered. After 1 hour, the loop weight, the loop weight after solution removal, and the loop area were measured to calculate a solution weight per unit area remaining in the loop.
The remaining solution amount per unit area was calculated with the following equation:
Remaining solution amount per unit area(g/cm^2)=(Loop weight−Loop weight after solution removal)/Loop area.
The fluid absorption was evaluated by calculating an inhibitory rate from the following equation:
Inhibitory rate(%)=100−(Remaining solution amount per unit area under drug administration−Remaining solution amount per unit area in base(average))/(Remaining solution amount per unit area under vehicle administration(average)−Remaining solution amount per unit area in base(average))×100.
(Base=case where no stimulation is given (no treatment with PGE2))

Test [2] deals with Balb/c mice. Put plainly: Anticancer agent (5-FU)-induced diarrhea model. Format: in vivo. On the procedure: To each of Balb/c mice, an anticancer agent was administered to induce diarrhea, and γ-Glu-Val-Gly (hereinafter, referred to as “γEVG”) was studied for its inhibitory effect on diarrhea. To each of 6-week-old Balb/c mice fed with a low protein nutrient diet (4% casein diet) for 1 week, 5-FU (1 mg/animal/day) was intraperitoneally administered for consecutive 3 days. The diarrhea developed around Day 5 after the third administration of the anticancer agent, and the diarrhea appeared in all cases on Day 7. The presence or absence of diarrhea was determined based on the presence or absence of the stool in the tail head area. As the statistical test, a chi-square (χ^2) test for the control group (presence or absence of diarrhea) was employed, and p<0.05 was regarded as significant.
Each administration of 0.01% γEVG was started in free water intake at the same time as the first administration of the anticancer agent, and continued until completion of the experiment.
To each of Balb/c mice, an anticancer agent was administered to induce diarrhea, and a calcium receptor activator (hereinafter, referred to as “CaSR agonist”) was studied for its inhibitory effect on diarrhea. To each of 6-week-old Balb/c mice fed with a low protein nutrient diet (4% casein diet) for 1 week, 5-FU (1 mg/animal/day) was intraperitoneally administered for consecutive 3 days. The diarrhea developed around Day 5 after the third administration of the anticancer agent, and the diarrhea appeared in all cases on Day 7. The presence or absence of diarrhea was determined based on the presence or absence of the stool in the tail head area. As the statistical test, a chi-square (χ^2) test for the control group (presence or absence of diarrhea) was employed, and p<0.05 was regarded as significant.
The administration of the CaSR agonist was started in free water intake at the same time as the administration of the low protein nutrient diet, and continued until completion of the experiment.

On to `CC(C)(C)[C@H](NC(=O)CC[C@H](N)C(=O)O)C(=O)NCC(=O)O` [γ-Glu-t-Leu-Gly] (γGlu-[Tle]-Gly-OH), for which the “fluid absorption (inhibitory rate from remaining solution amount per unit area)” value in test [1] is recorded as “promoted fluid absorption”.

Take `C[C@@H](NCCCc1cccc(C(F)(F)F)c1)c1cccc2ccccc12` [cinacalcet, (R)—N-(3-(3-(trifluoromethyl)phenyl)propyl)-1-(1-naphthyl)ethylamine]: the “mice that did not exhibit the diarrhea symptom” value in test [2] (0.05% administration group, free water intake from start of low protein diet, control all 9/9 with diarrhea) is recorded as 2 out of 5. In addition, in test [2] (0.5% in free water intake from start of low protein diet, control 9/9, p < 0.05 chi-square), the “Ratio of individuals that developed diarrhea” value is reported as 3/5*. The “fluid absorption (inhibitory rate from remaining solution amount per unit area)” value in test [1] is on record as “promoted fluid absorption”.

The values are drawn from patent US20100105864A1, “PROPHYLACTIC OR THERAPEUTIC AGENT FOR DIARRHEA” (priority 2007, published 2010).
